Measured values: patent publication US20220249441A1, “Homodimeric Tobramycin Adjuvant Repurposes Novobiocin as an Effective Antibacterial Agent Against Gram-Negative Bacteria” (priority 2019, published 2022)

What was measured:
[1] = test system: P. aeruginosa; assay: Checkerboard assay (antibiotic + adjuvant combination MIC); type: cell-based, Pseudomonas aeruginosa; conditions: compound at 8 μM
Procedure: Antimicrobial Susceptibility Assay. The in vitro antimicrobial activity of all compounds/antibiotics against a panel of bacteria was evaluated by microbroth dilution method in accordance with the Clinical and Laboratory Standards Institute (CLSI) guidelines (using ATCC strains as quality control strains) (54). Overnight grown bacterial cultures were diluted in saline to achieve a 0.5 McFarland turbidity, followed by 1:50 dilution in Mueller-Hinton broth (MHB) for inoculation to a final concentration of approximately 5×10^5 CFU/mL. […] The lowest concentration that prevented the visible growth of bacteria was defined as the MIC for each antimicrobial agent. The broth with or without bacterial cells was used as positive or negative control, respectively.
Checkerboard Assay. Combination studies with different antibiotics were performed in 96-well plates as previously described (19). Briefly, the antibiotic of interest was serially diluted in MHB along the abscissa while the adjuvant (tobramycin homodimer) was serially diluted in MHB along the ordinate. This creates a 10×7 matrices wherein each well consists of a combination of different antibiotic and adjuvant concentrations. Overnight grown bacterial cultures were diluted in saline to achieve a 0.5 McFarland turbidity, followed by 1:50 dilution in Mueller-Hinton broth (MHB) for inoculation to a final concentration of approximately 5×10^5 CFU/mL. […] MIC was recorded as wells with the lowest concentration of drugs with no bacterial growth. The fractional inhibitory concentration (FIC) for each antibiotic was calculated by dividing the MIC of the antibiotic in the presence of adjuvant by the MIC of the antibiotic alone. Similarly, the FIC of adjuvant was calculated by dividing the MIC of the adjuvant in the presence of antibiotic by the MIC of the adjuvant alone. FIC index is the sum of both FICs. FIC indices of ≤0.5 were deemed synergistic; >0.5-4, no interaction; and >4, antagonistic.

[2] = test system: P. aeruginosa PAO1 and efflux deficient mutants, MDR/XDR isolates; assay: microbe, parasite or virus in culture; type: cell-based, Pseudomonas aeruginosa
Procedure: Antimicrobial Susceptibility Assay. The in vitro antimicrobial activity of all compounds/antibiotics against a panel of bacteria was evaluated by microbroth dilution method in accordance with the Clinical and Laboratory Standards Institute (CLSI) guidelines (using ATCC strains as quality control strains) (54). […] The broth with or without bacterial cells was used as positive or negative control, respectively.

NC[C@H]1O[C@H](O[C@H]2[C@H](OCCCCc3cn(CCCCO[C@@H]4[C@@H](O[C@H]5O[C@H](CO)[C@@H](O)[C@H](N)[C@H]5O)[C@H](N)C[C@H](N)[C@H]4O[C@H]4O[C@H](CN)[C@@H](O)C[C@H]4N)nn3)[C@@H](O[C@H]3O[C@H](CO)[C@@H](O)[C@H](N)[C@H]3O)[C@H](N)C[C@@H]2N)[C@H](N)C[C@@H]1O.O=C(O)C(F)(F)F.O=C(O)C(F)(F)F.O=C(O)C(F)(F)F.O=C(O)C(F)(F)F.O=C(O)C(F)(F)F.O=C(O)C(F)(F)F.O=C(O)C(F)(F)F.O=C(O)C(F)(F)F.O=C(O)C(F)(F)F.O=C(O)C(F)(F)F [Compound 23, Tobramycin homodimer]
128 µg/mL: MIC of CAZ in the presence of compound ([1]; PA 259-96918)
2 µg/mL: MIC of CAZ in the presence of compound ([1]; PA 262-101856) | MIC of IPM in the presence of compound ([1]; PA 262-101856) | MIC of ATM in the presence of compound ([1]; PA 100036) | MIC of CAZ in the presence of compound ([1]; PA 100036) | MIC of CAZ in the presence of compound ([1]; PA 101885)
0.06 µg/mL: MIC of ATM in the presence of compound ([1]; PA O750 (efflux-deficient)) | MIC of CAZ in the presence of compound ([1]; PA O750 (efflux-deficient))
4 µg/mL: MIC of IPM in the presence of compound ([1]; PA 264-104354) | MIC of IPM in the presence of compound ([1]; PA 88949) | MIC of ATM in the presence of compound ([1]; PA 91433) | MIC of IPM in the presence of compound ([1]; PA 91433) | MIC of IPM in the presence of compound ([1]; PA 100036) | MIC of ATM in the presence of compound ([1]; PA 101885) | MIC of IPM in the presence of compound ([1]; PA 101885) | MIC of IPM in the presence of compound ([1]; PA 108590) | MIC of ATM in the presence of compound ([1]; PA 114228)
0.13 µg/mL: MIC of CAZ in the presence of compound ([1]; PA O200 (efflux-deficient))
0.03 µg/mL: MIC of ATM in the presence of compound ([1]; PA O200 (efflux-deficient))
8 µg/mL: MIC of ATM in the presence of compound ([1]; PA 259-96918) | MIC of CAZ in the presence of compound ([1]; PA 260-97103) | MIC of ATM in the presence of compound ([1]; PA 262-101856) | MIC of ATM in the presence of compound ([1]; PA 264-104354) | MIC of ATM in the presence of compound ([1]; PA 86052) | MIC of IPM in the presence of compound ([1]; PA 101243) | MIC of ATM in the presence of compound ([1]; PA 108590) | MIC of CAZ in the presence of compound ([1]; PA 108590) | MIC of ATM in the presence of compound ([1]; PA 109084) | MIC of IPM in the presence of compound ([1]; PA 109084)
64 µg/mL: MIC of CAZ in the presence of compound ([1]; PA 86052) | MIC of CAZ in the presence of compound ([1]; PA 101243)
five out of seventeen: resistant isolates in which CLSI breakpoint was attained for imipenem [1]
0.5 µg/mL: MIC of Piperacillin + compound ([1]; P. aeruginosa PAO1) | MIC of IPM in the presence of compound ([1]; PA 114228)
eleven out of thirteen: resistant isolates in which CLSI breakpoint was attained for aztreonam [1]
1 µg/mL: MIC of Imipenem + compound ([1]; P. aeruginosa PAO1) | MIC of CAZ in the presence of compound ([1]; PA 91433) | MIC of CAZ in the presence of compound ([1]; PA 114228) | MIC of IPM in the presence of compound ([1]; PA O200 (efflux-deficient)) | MIC of IPM in the presence of compound ([1]; PA O750 (efflux-deficient)) | MIC of IPM in the presence of compound ([1]; PAO1)
>128 µg/mL: MIC ([2]; PAO1 (wild-type)) | MIC ([2]; PAO200 (first column so headed)) | MIC ([2]; PAO200 (second column so headed))
16 µg/mL: MIC of ATM in the presence of compound ([1]; PA 260-97103) | MIC of IPM in the presence of compound ([1]; PA 260-97103) | MIC of IPM in the presence of compound ([1]; PA 86052) | MIC of CAZ in the presence of compound ([1]; PA 88949) | MIC of ATM in the presence of compound ([1]; PA 101243) | MIC of ATM in the presence of compound ([1]; PA 107092) | MIC of IPM in the presence of compound ([1]; PA 107092)
four out of eleven: resistant isolates in which CLSI breakpoint was attained for ceftazidime [1]
0.25 µg/mL: MIC of Aztreonam + compound ([1]; P. aeruginosa PAO1) | MIC of Ceftazidime + compound ([1]; P. aeruginosa PAO1) | MIC of ATM in the presence of compound ([1]; PAO1) | MIC of CAZ in the presence of compound ([1]; PAO1)
32 µg/mL: MIC of IPM in the presence of compound ([1]; PA 259-96918) | MIC of CAZ in the presence of compound ([1]; PA 264-104354) | MIC of ATM in the presence of compound ([1]; PA 88949) | MIC of CAZ in the presence of compound ([1]; PA 107092) | MIC of CAZ in the presence of compound ([1]; PA 109084)
